The values that follow come from patent US5863935A, “Therapeutic heterocyclic compounds” (Zeneca Limited, priority 1990, dated 1999).

The target in one data set is "5-HT1 -like" receptor (Oryctolagus cuniculus, UniProt P49144). The data set can be described thus: Agonist activity, contraction of rabbit lateral saphenous vein rings.
The next data set relates to Beagle dogs. As to the kind of experiment: 14-day oral toxicity in Beagle dogs. Type of data set: in vivo, dog. The conditions noted are these: hydrochloride salt, oral gavage, Beagle dogs, 0.25, 0.50, 1.0 and 2.0 mg/kg base once a day for 14 days. Here is the method:
(§1) The hydrochloride salt of the compound of Synthetic Examples 2/3 was administered orally by gavage to Wistar rats as a solution in distilled water at dosages of 25, 100 and 200 mg/kg base and to Beagle dogs at dosages of 0.25, 0.50, 1.0 and 2.0 mg/kg base once a dav for 14 days. In a separate dog study over 30 days, the dosage of the free base was increased from 2 mg/kg on Day 1 to 100 mg/kg on Day 30. The free base was also administered orally to cynomolgus monkeys at a dosage of 50 mg/kg once a day for 15 days.

The subject of a further data set is dog. As to the kind of experiment: 30-day escalating-dose toxicity study in dogs. Type of data set: in vivo. The following applies: free base, 30 days, dosage increased from 2 mg/kg on Day 1 to 100 mg/kg on Day 30. How it is done:
as §1

In a further data set the test system is cynomolgus monkeys. The conditions noted are these: cynomolgus monkey, in vivo, po, 50 mg/kg. How it is done:
as §1

Chain of "5-HT1 -like" receptor (P49144 whole entry): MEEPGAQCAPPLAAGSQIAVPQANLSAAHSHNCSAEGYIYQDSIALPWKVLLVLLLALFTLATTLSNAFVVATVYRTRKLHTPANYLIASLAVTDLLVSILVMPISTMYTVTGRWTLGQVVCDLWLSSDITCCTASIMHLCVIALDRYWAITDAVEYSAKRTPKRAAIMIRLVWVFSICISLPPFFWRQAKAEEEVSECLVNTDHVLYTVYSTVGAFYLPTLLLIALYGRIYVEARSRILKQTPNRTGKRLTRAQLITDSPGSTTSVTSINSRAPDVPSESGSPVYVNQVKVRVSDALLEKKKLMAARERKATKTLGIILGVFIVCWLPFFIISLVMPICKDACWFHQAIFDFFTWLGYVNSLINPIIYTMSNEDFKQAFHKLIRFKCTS

On "5-HT1 -like" receptor, `CN1CCC(c2c[nH]c3ccc(CC4COC(=O)N4)cc23)CC1` (racemic) [4/5, (±)-3-(1-methyl-4-piperidyl)-5-(2-oxo-1,3-oxazolidin-4-yl-methyl)-1H-indole] gave an EC50 of 501 nM.
Turning to `CN(C)CCc1c[nH]c2ccc(C[C@H]3COC(=O)N3)cc12` [2/3, (S)-N,N-dimethyl-2-[5-(2-oxo-1,3-oxazolidin-4-ylmethyl)-1H-indol-3-yl]ethylamine 0.9 isopropanolate 0.5 hydrate], the Toxicity result with Beagle dogs, in the data set on dog and in the data set on cynomolgus monkeys was “No evidence of toxicity” each time. Besides, a half-maximal effect at "5-HT1 -like" receptor (EC50) was put at 100 nM.
